Data published in patent US11072588B2, “Barbituric acid derivatives comprising cationic and lipophilic groups” (UNIVERSITETET I TROMSØ—NORGES ARKTISKE UNIVERSITET, priority 2017, dated 2021).
In brackets after ≈: the same amount, converted by molar mass.

What was measured:
[1] = test system: Corynebacterium glutamicum ATCC 13032; assay: MIC assay, antibiotic susceptible reference strain; assay type: cell-based; settings: Corynebacterium glutamicum, ATCC13032, read-out: Antimicrobial activity (MIC) C. g
Method: (§1) Working solutions of the test derivatives were prepared with up to 100% DMSO and stored at −20° C. If necessary, the solutions were heated to 40-80° C. before testing to facilitate complete dissolution. Double-distilled water was used in all dilutions prepared. […] A microdilution susceptibility test was used for MIC determination according to Clinical and Laboratory Standards Institute, “Methods for Dilution Antimicrobial Sisceptibility Tests for Bacteria That Graw Aerobically”, Approved Standard M07-A9, edition 2012, with modifications as described by Igumnova et al (Bioorg Med Chem, 2016, 24 (22), 5884-5894).
(§2) Briefly, the bacterial inoculum was adjusted to approximately 2.5-3×10^4 cells/mL in Mueller-Hinton broth (MHB, Difco Laboratories, USA), and incubated in a ratio of 1:1 with test derivatives in polystyrene 96-well flat-bottom microplates (NUNC, Roskilde, Denmark). Positive growth control (without test derivatives) and negative control (without bacteria) were included. The reference antibiotic was oxytetracycline hydrochloride (Sigma Aldrich, Saint Louis, Mo., USA). The microplates were incubated in an EnVision microplate reader (Perkin-Elmer, Turku, Finland) placed in an incubator set to 35° C. for 48 h. The MIC value was defined as the lowest concentration of derivative resulting in no bacterial growth as determined by OD600 measurement. All derivatives were tested in three parallels.

[2] = test system: Escherichia coli ATCC 25922; assay: MIC assay, antibiotic susceptible reference strain; assay type: cell-based; settings: Escherichia coli, ATCC25922, read-out: Antimicrobial activity (MIC) E. c
Method: as §1, §2

[3] = test system: Pseudomonas aeruginosa PA01, DSM 19880 (ATCC 15692); assay: MIC assay, antibiotic susceptible reference strain; assay type: cell-based; settings: Pseudomonas aeruginosa, read-out: Antimicrobial activity (MIC) P. a
Method: as §1, §2

[4] = test system: Staphylococcus aureus ATCC 9144; assay: MIC assay, antibiotic susceptible reference strain; assay type: cell-based; settings: Staphylococcus aureus, ATCC9144, read-out: Antimicrobial activity (MIC) S. a
Method: as §1, §2

S. aureus IHT 99040 = assay: MIC, multi-resistant clinical isolate; assay type: cell-based, Staphylococcus aureus
Method: as §1, §2
(§3) The MIC was determined as explained above with some exceptions; working solutions of test derivatives were prepared from concentrated DMSO stocks stored at room temperature, the density of the bacterial inoculum was increased 40× to 1-1.2×10^6 cells/mL, enterococci were incubated in Brain Heart Infusion broth (BHIB, Difco Laboratories, USA), the microplates were incubated for 24 h, and the derivatives were tested in four parallels.

S. aureus N315 = assay: MIC, multi-resistant clinical isolate; assay type: cell-based, Staphylococcus aureus
Method: as §1, §2, §3

S. aureus NCTC 10442 = assay: MIC, multi-resistant clinical isolate; assay type: cell-based, Staphylococcus aureus
Method: as §1, §2, §3

S. aureus strain 85/2082 = assay: MIC, multi-resistant clinical isolate; assay type: cell-based, Staphylococcus aureus
Method: as §1, §2, §3

S. aureus strain WIS = assay: MIC, multi-resistant clinical isolate; assay type: cell-based, Staphylococcus aureus
Method: as §1, §2, §3

E. faecium 50673722 = assay: MIC, multi-resistant clinical isolate; assay type: cell-based, Enterococcus faecium
Method: as §1, §2, §3

E. faecium 50758899 = assay: MIC, multi-resistant clinical isolate; assay type: cell-based, Enterococcus faecium
Method: as §1, §2, §3

E. faecium 50901530 = assay: MIC, multi-resistant clinical isolate; assay type: cell-based, Enterococcus faecium
Method: as §1, §2, §3

E. faecium K36-18 = assay: MIC, multi-resistant clinical isolate; assay type: cell-based, Enterococcus faecium
Method: as §1, §2, §3

E. faecium TUH50-22 = assay: MIC, multi-resistant clinical isolate; assay type: cell-based, Enterococcus faecium
Method: as §1, §2, §3

E. coli 50579417 = assay: MIC, multi-resistant clinical isolate; assay type: cell-based, Escherichia coli
Method: as §1, §2, §3

E. coli 50639799 = assay: MIC, multi-resistant clinical isolate; assay type: cell-based, Escherichia coli
Method: as §1, §2, §3

E. coli 50676002 = assay: MIC, multi-resistant clinical isolate; assay type: cell-based, Escherichia coli; settings: E. coli 50676002
Method: as §1, §2, §3

E. coli 50739822 = assay: MIC, multi-resistant clinical isolate; assay type: cell-based, Escherichia coli
Method: as §1, §2, §3

E. coli 50857972 = assay: MIC, multi-resistant clinical isolate; assay type: cell-based, Escherichia coli
Method: as §1, §2, §3

P. aeruginosa 50692520 = assay: MIC, multi-resistant clinical isolate; assay type: cell-based, Pseudomonas aeruginosa
Method: as §1, §2, §3

P. aeruginosa K34-73 = assay: MIC, multi-resistant clinical isolate; assay type: cell-based, Pseudomonas aeruginosa; settings: P. aeruginosa K34-73
Method: as §1, §2, §3

P. aeruginosa K44-24 = assay: MIC, multi-resistant clinical isolate; assay type: cell-based, Pseudomonas aeruginosa
Method: as §1, §2, §3

S. epidermidis = assay: Anti-biofilm activity (inhibition of biofilm formation); assay type: cell-based; settings: Staphylococcus epidermidis, read-out: Anti-biofilm IC50
[5] = test system: panel of 30 multi-resistant clinical isolates of Gram-positive and Gram-negative bacteria; assay: MIC screening, ranges over the panel of clinical isolates; assay type: cell-based; settings: Enterococcus faecium, read-out: MIC values against the Gram-positive isolates of S. aurues and E. faecium
Method: as §1, §2, §3

[6] = Enterococcus faecium, read-out: Antimicrobial activity (MIC)
[7] = Escherichia coli, read-out: Antimicrobial activity (MIC)

N=C(N)NCCCCN1C(=O)N(CCCCNC(=N)N)C(=O)C(Cc2ccc3ccccc3c2)(Cc2ccc3ccccc3c2)C1=O [8(iv), 1,1′-(4,4′-(5,5-bis(naphthalen-2-ylmethyl)-2,4,6-trioxodihydropyrimidine-1,3(2H,4H)-diyl)bis(butane-4,1-diyl))-diguanidine]
MIC [1]: 0.25 µg/mL (≈ 0.394 µM)
MIC [2]: 1 µg/mL (≈ 1.58 µM)
MIC [3]: 8 µg/mL (≈ 12.6 µM)
MIC [4]: 1 µg/mL (≈ 1.58 µM)
selectivity index (EC50/MIC) (S. aureus IHT 99040; RBC EC50 / MIC): (17)
MIC (S. aureus IHT 99040; Staphylococcus aureus, IHT99040, read-out: Antimicrobial activity (MIC)): 8 µg/mL (≈ 12.6 µM)
selectivity index (EC50/MIC) (S. aureus N315; RBC EC50 / MIC, S. aureus N315): (17)
MIC (S. aureus N315; Staphylococcus aureus, N315, read-out: Antimicrobial activity (MIC)): 8 µg/mL (≈ 12.6 µM)
selectivity index (EC50/MIC) (S. aureus NCTC 10442; RBC EC50 / MIC, S. aureus NCTC 10442): (17)
MIC (S. aureus NCTC 10442; Staphylococcus aureus, NCTC10442, read-out: Antimicrobial activity (MIC)): 8 µg/mL (≈ 12.6 µM)
selectivity index (EC50/MIC) (S. aureus strain 85/2082; RBC EC50 / MIC, S. aureus strain 85/2082): (17)
MIC (S. aureus strain 85/2082; Staphylococcus aureus, 85/2082, read-out: Antimicrobial activity (MIC)): 8 µg/mL (≈ 12.6 µM)
selectivity index (EC50/MIC) (S. aureus strain WIS; RBC EC50 / MIC, S. aureus strain WIS): (17)
MIC (S. aureus strain WIS; Staphylococcus aureus, read-out: Antimicrobial activity (MIC)): 8 µg/mL (≈ 12.6 µM)
MIC (E. faecium 50673722; [6]): 16 µg/mL (≈ 25.2 µM)
selectivity index (EC50/MIC) (E. faecium 50673722; RBC EC50 / MIC): (8)
MIC (E. faecium 50758899; [6]): 16 µg/mL (≈ 25.2 µM)
selectivity index (EC50/MIC) (E. faecium 50758899; RBC EC50 / MIC): (8)
MIC (E. faecium 50901530; [6]): 8 µg/mL (≈ 12.6 µM)
selectivity index (EC50/MIC) (E. faecium 50901530; RBC EC50 / MIC): (17)
MIC (E. faecium K36-18; Enterococcus faecium, K3618, read-out: Antimicrobial activity (MIC)): 16 µg/mL (≈ 25.2 µM)
selectivity index (EC50/MIC) (E. faecium K36-18; RBC EC50 / MIC, E. faecium K36-18): (8)
MIC (E. faecium TUH50-22; Enterococcus faecium, TUH5022, read-out: Antimicrobial activity (MIC)): 8 µg/mL (≈ 12.6 µM)
selectivity index (EC50/MIC) (E. faecium TUH50-22; RBC EC50 / MIC): (17)
MIC (E. coli 50579417; [7]): 16 µg/mL (≈ 25.2 µM)
selectivity index (EC50/MIC) (E. coli 50579417; RBC EC50 / MIC): (8)
MIC (E. coli 50639799; [7]): 8 µg/mL (≈ 12.6 µM)
selectivity index (EC50/MIC) (E. coli 50639799; RBC EC50 / MIC): (17)
MIC (E. coli 50676002; [7]): 8 µg/mL (≈ 12.6 µM)
selectivity index (EC50/MIC) (E. coli 50676002; RBC EC50 / MIC): (17)
MIC (E. coli 50739822; [7]): 8 µg/mL (≈ 12.6 µM)
selectivity index (EC50/MIC) (E. coli 50739822; RBC EC50 / MIC): (17)
MIC (E. coli 50857972; [7]): 8 µg/mL (≈ 12.6 µM)
selectivity index (EC50/MIC) (E. coli 50857972; RBC EC50 / MIC): (17)
MIC (P. aeruginosa 50692520; Pseudomonas aeruginosa, read-out: Antimicrobial activity (MIC)): 32 µg/mL (≈ 50.4 µM)
selectivity index (EC50/MIC) (P. aeruginosa 50692520; RBC EC50 / MIC): (4)
MIC (P. aeruginosa K34-73; Pseudomonas aeruginosa, K3473, read-out: Antimicrobial activity (MIC)): 32 µg/mL (≈ 50.4 µM)
selectivity index (EC50/MIC) (P. aeruginosa K34-73; RBC EC50 / MIC): (4)
MIC (P. aeruginosa K44-24; Pseudomonas aeruginosa, K4424, read-out: Antimicrobial activity (MIC)): 32 µg/mL (≈ 50.4 µM)
selectivity index (EC50/MIC) (P. aeruginosa K44-24; RBC EC50 / MIC): (4)
IC50 (S. epidermidis): 1 µg/mL (≈ 1.58 µM)
MIC [5]: 8 to 16 µg/mL (≈ 12.6 to 25.2 µM)
